# Tested on: IgG antibodies in anti-sera immunized with the lipopolysaccharide of the V. cholerae O100 serotype
# Assay: Glycan microarray screening of saccharide fragments with rabbit anti-sera
# Assay type: binding
# Conditions: rabbit sera diluted 1:200; goat anti-rabbit IgG secondary antibodies 1:400; FIG. 9
# Procedure: Step 1: The obtained sugar fragment is dissolved in a 50 mM phosphate solution (pH=8.5), printed onto the microarray using a microarray spotter, and incubated at room temperature and 65% humidity overnight to covalently bind the saccharide fragment to the microarray; and after incubation, the microarray is quenched by treatment with a mixed solution of […] solution (pH=9) at 50° C. for 1 h.
# Step 2: The glycan microarray is probed with diluted rabbit anti-sera and co-incubated to specifically bind IgG antibodies in the anti-sera to the saccharide fragment, and unbound serum antibodies are washed away; and subsequently, fluorescently labeled secondary antibodies (anti-IgG antibodies) are used to bind the IgG antibodies on the microarray and incubated, and unbound secondary antibodies are washed away.
# Synthetic oligosaccharides and LPS were dissolved in a coupling buffer (50 mM sodium phosphate, pH=8.5) for printing onto a “CodeLink” slide (SurModics Co., Ltd.) using an RMA-Arrayer 96 (Rayme China). Then the slide was incubated overnight in a humidifying chamber at 26° C. and 55% humidity. The slide and the microarray were incubated in a quenching buffer ([…] ethanolamine) at 50° C. for 1 h. […]
smiles,measurement,value
CC(=O)NC1C(O)[C@H](NC(C)=O)C(C)O[C@H]1OCN (stereo partly shown) [Compound 10],"antigenicity / recognition by the antibodies (glycan microarray, fluorescence)",cannot be recognized by the antibodies

# Source: patent US20260007733A1, “Specific Saccharide Fragment for Development of Vibrio Cholerae Vaccines” (priority 2024, published 2026)
